Legend:
3×Tg-AD mice = assay: Short-term memory in single alternation T-maze, 3×Tg-AD mice; type: in vivo; conditions: 10 mg/kg in saline 1 hr prior to testing, vs saline controls, p<0.001
Description: In this model, genes that cause Alzheimer's disease have been cloned from living Alzheimer's patients and then directly cloned into the genome of living mice to create Alzheimer mice (3×Tg-AD mice). […] (Oddo, S., et al., Triple-transgenic model of Alzheimer's disease with plaques and tangles: intracellular Abeta and synaptic dysfunction. Neuron, 2003; 39(3):409-21.)
Short-term memory was assessed in a well-accepted memory model (single alternation T-maze). In these studies, animals were administered 10 mg/kg PD2005 in saline 1 hr prior to testing and controls were administered only saline.

patients with dementia = conditions: Alzheimer's disease, frontotemporal dementia, vascular dementia; Dolder et al. review; cited from earlier work
dopamine transporter = dopamine transporter (Homo sapiens, UniProt Q01959); conditions: result in words; cited from earlier work
Sequence of dopamine transporter (Q01959 whole entry): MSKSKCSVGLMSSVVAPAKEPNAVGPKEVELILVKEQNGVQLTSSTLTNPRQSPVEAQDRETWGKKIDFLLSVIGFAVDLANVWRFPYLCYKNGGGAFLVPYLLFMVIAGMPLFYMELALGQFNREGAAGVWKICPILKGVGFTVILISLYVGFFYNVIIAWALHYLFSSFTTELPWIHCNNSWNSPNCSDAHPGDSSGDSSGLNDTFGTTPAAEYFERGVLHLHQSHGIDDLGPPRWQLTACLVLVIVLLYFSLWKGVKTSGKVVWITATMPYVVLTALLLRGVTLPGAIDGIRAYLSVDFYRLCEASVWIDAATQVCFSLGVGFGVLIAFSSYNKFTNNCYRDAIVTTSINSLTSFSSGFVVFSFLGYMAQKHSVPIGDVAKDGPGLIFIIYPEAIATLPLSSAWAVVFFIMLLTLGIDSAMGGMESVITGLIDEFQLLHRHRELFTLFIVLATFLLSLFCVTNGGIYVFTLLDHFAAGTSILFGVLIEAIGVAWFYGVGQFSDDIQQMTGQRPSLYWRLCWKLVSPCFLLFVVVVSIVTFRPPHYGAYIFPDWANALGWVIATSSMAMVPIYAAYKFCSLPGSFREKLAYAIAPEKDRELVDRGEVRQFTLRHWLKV

C=CCN1C2CCC1CC(OC(c1ccc(F)cc1)c1ccc(F)cc1)C2 (stereo not drawn) [PD2005, N-allyl-4′,4″-difluoro-3α-diphenyl-methoxytropane]
improvement in memory (3×Tg-AD mice; first day of testing): 140% | memory improvement (3×Tg-AD mice; following day of testing): 113%

CC(N)Cc1ccccc1 (centres unmarked) [amphetamine]
effectiveness in patients with dementia (patients with dementia): not effective

CN1[C@@H]2CC[C@H]1C[C@@H](OC(c1ccccc1)c1ccccc1)C2 [benztropine]
affinity for the dopamine transporter (dopamine transporter): high affinity

COC(=O)C(c1ccccc1)C1CCCCN1 (centres unmarked) [methylphenidate]
effectiveness in patients with dementia (patients with dementia): not effective

Reference: patent publication US20150258077A1, “SUBSTITUTED B[…] FOR TREATMENT OF DEMENTIA” (P2D Inc., priority 2012, published 2015)
